We go through nine molecules from patent publication US4628089A, “Pyrido(2,3-D)pyrimidines” (Southern Research Institute, priority 1985, dated 1986).

Experiment [1] concerns mammalian dihydrofolate reductase. Particulars: Grivsky et al., J. Med. Chem., 23, 327 (1980); cited from earlier work.
Experiment [2] deals with hypertensive rat. The conditions noted are these: L. R. Bennett et al, J. Med. Chem., 24, 382 (1981); cited from earlier work.
Experiment [3] deals with thymidylate synthetase. Particulars: background; cited from earlier work.
Experiment [4] concerns lymphocytic leukemia P388. The experiment can be described thus: Activity against lymphocytic leukemia P388 in mice. Type of experiment: in vivo, mouse (CDF1 mice). The conditions noted are these: ip, qd 1-5 days, 10^6 P388 cells ip, CDF1 mice.
Experiment [5] concerns Human epidermoid carcinoma cell No. 2. The experiment can be described thus: Cell culture cytotoxicity, inhibition of colony formation after 12 days. Type of experiment: cell-based. The conditions noted are these: 288 h, colony formation after 12 days in plastic flask, read-out: ED50 (concentration inhibiting colony formation by 50%).
Excerpt: ^a Human epidermoid carcinoma cell No. 2.
^c Concentrations inhibiting colony formation by 50% after 12 days as
determined in plastic flask.
Experiment [6] relates to dihydrofolate reductase. The conditions noted are these: background; cited from earlier work.

For `COc1ccc(OC)c(Cc2cnc3nc(N)nc(N)c3c2C)c1`, the “inhibition of mammalian dihydrofolate reductase” value in experiment [1] is “potent lipid-soluble inhibitor of mammalian dihydrofolate reductase”.
On to `Cc1ncc2cc(-c3c(Cl)cccc3Cl)c(N)nc2n1`, for which, in experiment [2], the “blood pressure in the hypertensive rat” value is reported as “lowered blood pressure”.
For `C#CCN(Cc1ccc2nc(N)nc(O)c2c1)c1ccc(C(=O)N[C@@H](CCC(=O)O)C(=O)O)cc1` [5,8-dideaza-10-propargylfolic acid, N-[4-[N-[(2-amino-4-hydroxy-6-quinazolinyl)methyl]prop-2-ynylamino]benzoyl]-L-glutamic acid], in experiment [3], the “inhibition of thymidylate synthetase” value is given as “potent inhibitor of thymidylate synthetase”.
For the molecule `CN(Cc1cnc2nc(N)[nH]c(=O)c2c1)c1ccc(C(=O)N[C@@H](CCC(=O)O)C(=O)O)cc1` [I (R = CH3), N-[4[[(2-amino-4(3H)-oxopyrido[2,3-d]-pyrimidin-6-yl)methyl]methylamino]benzoyl]-L-glutamic acid], in experiment [4] (200 mg/kg), the “% ILS” value is given as 11%. Also, the IC50 in experiment [5] is 11200 nM.
As to `Nc1nc2ncc(CNc3ccc(C(=O)N[C@@H](CCC(=O)O)C(=O)O)cc3)cc2c(=O)[nH]1` [I (R = H), N-[4-[(2-Amino-4(3H)-oxopyrido[2,3-d]pyrimidin-6-yl)methylamino]benzoyl]-L-glutamic Acid], the “% ILS” value in experiment [4] (100 mg/kg) is 17%. In addition, the IC50 in experiment [5] was determined as 6100 nM.
As for `CN(Cc1cnc2nc(N)nc(N)c2c1)c1ccc(C(=O)N[C@@H](CCC(=O)O)C(=O)O)cc1` [II (R = CH3), N-[4-[[(2,4-Diaminopyrido[2,3-d]pyrimidine-6-yl)methyl]methylamino]benzoyl]-L-glutamic acid], in experiment [4] (4 mg/kg), the 30th day survivor entry is reported as “One” and the “% ILS” value is 92%. Also, the IC50 in experiment [5] stood at 4 nM.
Take `Nc1nc(N)c2cc(CNc3ccc(C(=O)N[C@@H](CCC(=O)O)C(=O)O)cc3)cnc2n1` [II (R = H), N-[4-[(2,4-Diaminopyrido[2,3-d]pyrimidine-6-yl)methylamino]benzoyl]-L-glutamic acid]: in experiment [5], the IC50 stood at 13 nM.
Regarding `CN(Cc1cnc2nc(N)nc(N)c2n1)c1ccc(C(=O)N[C@@H](CCC(=O)O)C(=O)O)cc1` [Methotrexate, reference compound], the “inhibition of dihydrofolate reductase” value in experiment [6] is listed as “Powerful dihydrofolate reductase inhibitors”. The IC50 in experiment [5] turned out to be 1 nM.
Turning to `CCOC(=O)CC[C@H](NC(=O)c1ccc(NCc2cnc3nc(N)nc(N)c3c2)cc1)C(=O)OCC` [VII (R = H; R1 = C2 H5), Diethyl N-[4-[(2,4-diaminopyrido[2,3-d]pyrimidine-6-yl)methylamino]benzoyl]-L-glutamate], the “% ILS” value in experiment [4] (1 mg/kg) was 118%. In addition, the IC50 in experiment [5] was 52 nM.
